The source of these data is US9637483B2, “Heterocyclic compound” (TAKEDA PHARMACEUTICAL COMPANY LIMITED, priority 2013, dated 2017).

Each structure is given as a SMILES string.

Common to all, as to type: biochemical
Assay [1] concerns the target T1, JAK1 (Homo sapiens, UniProt P23458).
T1 construct: purchased Invitrogen
Kind of assay: JAK1 enzyme inhibition test (LANCE method). The conditions noted are these: 1 μM test compound; for inhibition at 1 µM: read-out: JAK1 enzyme inhibitory activity (%, 1 μM). The method in brief:
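Inhibition expressed against no-enzyme wells (100% inhibition), from time-resolved fluorescence at 665 nm after Eu-anti-phosphotyrosine antibody/EDTA detection. Kinase reaction ran 1 h at room temperature, pH 7.5 HEPES buffer, ULight-JAK1 substrate and ATP diluted to 300 nM and 150 μM before addition.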
On the technique in general: TR-FRET usually uses a lanthanide donor and a delayed reading to cut background.

In assay [2] the target is T2, JAK2 (Homo sapiens, UniProt O60674).
T2 construct: purchased Invitrogen
T2 sequence (O60674 whole entry): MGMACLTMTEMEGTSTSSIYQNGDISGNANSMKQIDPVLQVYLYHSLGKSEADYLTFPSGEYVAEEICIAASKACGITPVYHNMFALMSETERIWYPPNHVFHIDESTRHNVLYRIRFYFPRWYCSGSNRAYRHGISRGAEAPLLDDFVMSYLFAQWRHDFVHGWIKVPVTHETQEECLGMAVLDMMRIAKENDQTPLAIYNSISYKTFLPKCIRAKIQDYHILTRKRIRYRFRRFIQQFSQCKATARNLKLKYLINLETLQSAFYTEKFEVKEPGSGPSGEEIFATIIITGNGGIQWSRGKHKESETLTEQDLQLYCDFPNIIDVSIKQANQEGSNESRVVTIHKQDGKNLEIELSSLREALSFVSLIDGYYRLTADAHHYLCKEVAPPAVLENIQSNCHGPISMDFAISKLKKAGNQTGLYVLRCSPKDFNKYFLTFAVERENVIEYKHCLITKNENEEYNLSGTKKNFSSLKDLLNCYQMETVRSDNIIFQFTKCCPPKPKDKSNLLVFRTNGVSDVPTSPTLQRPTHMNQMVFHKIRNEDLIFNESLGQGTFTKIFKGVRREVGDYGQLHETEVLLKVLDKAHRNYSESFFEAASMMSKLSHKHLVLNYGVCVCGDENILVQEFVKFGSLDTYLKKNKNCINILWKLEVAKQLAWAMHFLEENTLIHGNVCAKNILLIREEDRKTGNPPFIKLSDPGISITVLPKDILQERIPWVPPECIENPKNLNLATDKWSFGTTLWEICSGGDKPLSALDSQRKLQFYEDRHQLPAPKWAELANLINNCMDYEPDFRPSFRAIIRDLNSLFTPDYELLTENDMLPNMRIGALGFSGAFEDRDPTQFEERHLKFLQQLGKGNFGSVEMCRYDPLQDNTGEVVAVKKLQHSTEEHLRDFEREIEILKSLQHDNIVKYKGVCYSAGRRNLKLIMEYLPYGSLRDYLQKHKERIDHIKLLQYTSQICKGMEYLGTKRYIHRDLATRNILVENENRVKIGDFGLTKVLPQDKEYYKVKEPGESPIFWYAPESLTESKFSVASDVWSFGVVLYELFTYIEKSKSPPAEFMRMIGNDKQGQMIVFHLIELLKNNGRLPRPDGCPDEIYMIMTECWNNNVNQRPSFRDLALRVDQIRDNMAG
Put plainly: JAK2 enzyme inhibition test (LANCE method). The conditions noted are these: 1 μM test compound; for inhibition at 1 µM: read-out: JAK2 enzyme inhibitory activity (%, 1 μM). The method in brief:
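TR-FRET (LANCE) read-out, ex 340/em 665 nm with 100 μs delay, after 1 hr room-temperature detection with europium anti-phosphotyrosine antibody and 20 mM EDTA. The preceding 1 hr kinase reaction combined JAK2, ULight-JAK1 substrate and ATP, added as 6 ng/mL, 300 nM and 45 μM solutions; enzyme-free wells defined 100% inhibition.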

For assay [3], the target named is T3, JAK3 (Homo sapiens, UniProt P52333).
T3 construct: purchased Invitrogen
T3 sequence (P52333 1-1124): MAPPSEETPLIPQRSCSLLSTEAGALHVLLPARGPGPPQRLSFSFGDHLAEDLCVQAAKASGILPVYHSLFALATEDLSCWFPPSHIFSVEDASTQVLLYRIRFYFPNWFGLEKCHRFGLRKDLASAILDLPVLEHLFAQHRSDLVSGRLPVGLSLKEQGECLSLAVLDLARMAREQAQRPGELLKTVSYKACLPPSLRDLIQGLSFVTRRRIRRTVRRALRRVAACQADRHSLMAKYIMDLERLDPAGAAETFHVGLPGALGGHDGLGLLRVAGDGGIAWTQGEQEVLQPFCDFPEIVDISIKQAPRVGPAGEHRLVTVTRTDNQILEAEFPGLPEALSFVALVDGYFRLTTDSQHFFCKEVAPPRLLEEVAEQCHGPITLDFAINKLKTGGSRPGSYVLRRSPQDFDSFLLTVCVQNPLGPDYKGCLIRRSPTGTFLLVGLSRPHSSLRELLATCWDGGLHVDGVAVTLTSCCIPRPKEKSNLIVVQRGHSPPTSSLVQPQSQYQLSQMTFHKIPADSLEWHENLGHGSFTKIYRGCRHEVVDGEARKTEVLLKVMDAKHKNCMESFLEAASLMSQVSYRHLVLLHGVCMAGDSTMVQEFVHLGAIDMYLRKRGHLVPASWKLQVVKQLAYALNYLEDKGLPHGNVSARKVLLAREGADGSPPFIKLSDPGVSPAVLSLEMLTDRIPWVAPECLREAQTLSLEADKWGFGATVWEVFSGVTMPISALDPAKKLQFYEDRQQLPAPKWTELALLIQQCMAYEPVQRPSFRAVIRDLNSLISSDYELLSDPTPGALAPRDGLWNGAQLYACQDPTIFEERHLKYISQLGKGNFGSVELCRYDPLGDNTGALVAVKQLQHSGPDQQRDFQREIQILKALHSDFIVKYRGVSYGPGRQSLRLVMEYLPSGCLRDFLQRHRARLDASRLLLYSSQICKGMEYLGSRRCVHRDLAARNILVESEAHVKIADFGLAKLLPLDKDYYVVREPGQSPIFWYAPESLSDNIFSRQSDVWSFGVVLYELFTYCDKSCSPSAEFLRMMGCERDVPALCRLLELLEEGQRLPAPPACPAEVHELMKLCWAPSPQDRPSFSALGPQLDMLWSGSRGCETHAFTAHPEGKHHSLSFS
Put plainly: JAK3 enzyme inhibition test (LANCE method). The conditions noted are these: 1 μM test compound; for inhibition at 1 µM: read-out: JAK3 enzyme inhibitory activity (%, 1 μM). In outline:
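TR-FRET (LANCE) read: 1 h room-temperature reaction, EDTA quench, Eu-anti-phosphotyrosine antibody, emission 665 nm after 340 nm excitation. Added solutions held 12 ng/mL JAK3, 300 nM ULight-JAK1 substrate and 15 μM ATP (pH 7.5 HEPES). Activity expressed against no-enzyme wells defined as full inhibition.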

Assay [4] deals with T4, TYK2 (Homo sapiens, UniProt P29597).
T4 construct: purchased Invitrogen
T4 sequence (P29597 whole entry): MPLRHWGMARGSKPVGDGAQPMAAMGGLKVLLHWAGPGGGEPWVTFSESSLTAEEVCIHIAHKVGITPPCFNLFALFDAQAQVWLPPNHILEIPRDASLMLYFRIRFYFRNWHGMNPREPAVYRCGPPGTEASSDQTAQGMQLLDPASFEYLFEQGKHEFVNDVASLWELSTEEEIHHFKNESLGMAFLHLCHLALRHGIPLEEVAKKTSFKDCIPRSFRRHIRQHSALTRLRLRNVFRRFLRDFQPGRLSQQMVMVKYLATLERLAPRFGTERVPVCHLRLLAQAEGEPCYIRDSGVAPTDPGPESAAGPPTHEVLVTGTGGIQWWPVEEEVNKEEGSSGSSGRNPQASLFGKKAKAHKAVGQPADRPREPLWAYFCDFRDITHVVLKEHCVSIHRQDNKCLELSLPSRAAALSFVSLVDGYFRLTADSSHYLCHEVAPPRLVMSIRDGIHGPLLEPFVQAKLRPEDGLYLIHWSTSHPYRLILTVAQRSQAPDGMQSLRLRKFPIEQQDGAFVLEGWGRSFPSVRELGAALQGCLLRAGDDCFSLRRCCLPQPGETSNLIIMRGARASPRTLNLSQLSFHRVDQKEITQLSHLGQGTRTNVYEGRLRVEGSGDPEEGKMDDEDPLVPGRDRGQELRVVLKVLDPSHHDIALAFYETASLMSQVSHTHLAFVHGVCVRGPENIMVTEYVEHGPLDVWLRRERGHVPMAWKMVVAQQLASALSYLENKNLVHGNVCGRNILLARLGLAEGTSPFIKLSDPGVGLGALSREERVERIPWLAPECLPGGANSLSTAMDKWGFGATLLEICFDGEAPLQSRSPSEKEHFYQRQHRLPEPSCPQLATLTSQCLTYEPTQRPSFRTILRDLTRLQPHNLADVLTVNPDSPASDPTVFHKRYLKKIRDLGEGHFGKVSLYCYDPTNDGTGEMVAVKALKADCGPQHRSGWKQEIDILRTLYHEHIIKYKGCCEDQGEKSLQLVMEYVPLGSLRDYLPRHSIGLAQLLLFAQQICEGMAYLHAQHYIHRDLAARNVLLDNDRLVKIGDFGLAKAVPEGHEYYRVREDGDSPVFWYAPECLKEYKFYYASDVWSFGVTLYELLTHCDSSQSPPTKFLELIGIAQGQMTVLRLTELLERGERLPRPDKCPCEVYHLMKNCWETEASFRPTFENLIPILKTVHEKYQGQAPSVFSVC
Put plainly: TYK2 enzyme inhibition test (LANCE method). The conditions noted are these: 1 μM test compound; for inhibition at 1 µM: read-out: TYK2 enzyme inhibitory activity (%, 1 μM). In outline:
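TR-FRET (LANCE) readout: after 1 h room-temperature kinase reaction, EDTA plus 4 nM Eu-labelled anti-phosphotyrosine antibody added, signal at 665 nm (340 nm excitation). Reaction combined TYK2, ULight-JAK1 substrate and ATP, prepared at 375 ng/mL, 300 nM and 30 μM before addition, in pH 7.5 HEPES/MgCl2 buffer; enzyme-free wells define full inhibition.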

T1 sequence (P23458 whole entry): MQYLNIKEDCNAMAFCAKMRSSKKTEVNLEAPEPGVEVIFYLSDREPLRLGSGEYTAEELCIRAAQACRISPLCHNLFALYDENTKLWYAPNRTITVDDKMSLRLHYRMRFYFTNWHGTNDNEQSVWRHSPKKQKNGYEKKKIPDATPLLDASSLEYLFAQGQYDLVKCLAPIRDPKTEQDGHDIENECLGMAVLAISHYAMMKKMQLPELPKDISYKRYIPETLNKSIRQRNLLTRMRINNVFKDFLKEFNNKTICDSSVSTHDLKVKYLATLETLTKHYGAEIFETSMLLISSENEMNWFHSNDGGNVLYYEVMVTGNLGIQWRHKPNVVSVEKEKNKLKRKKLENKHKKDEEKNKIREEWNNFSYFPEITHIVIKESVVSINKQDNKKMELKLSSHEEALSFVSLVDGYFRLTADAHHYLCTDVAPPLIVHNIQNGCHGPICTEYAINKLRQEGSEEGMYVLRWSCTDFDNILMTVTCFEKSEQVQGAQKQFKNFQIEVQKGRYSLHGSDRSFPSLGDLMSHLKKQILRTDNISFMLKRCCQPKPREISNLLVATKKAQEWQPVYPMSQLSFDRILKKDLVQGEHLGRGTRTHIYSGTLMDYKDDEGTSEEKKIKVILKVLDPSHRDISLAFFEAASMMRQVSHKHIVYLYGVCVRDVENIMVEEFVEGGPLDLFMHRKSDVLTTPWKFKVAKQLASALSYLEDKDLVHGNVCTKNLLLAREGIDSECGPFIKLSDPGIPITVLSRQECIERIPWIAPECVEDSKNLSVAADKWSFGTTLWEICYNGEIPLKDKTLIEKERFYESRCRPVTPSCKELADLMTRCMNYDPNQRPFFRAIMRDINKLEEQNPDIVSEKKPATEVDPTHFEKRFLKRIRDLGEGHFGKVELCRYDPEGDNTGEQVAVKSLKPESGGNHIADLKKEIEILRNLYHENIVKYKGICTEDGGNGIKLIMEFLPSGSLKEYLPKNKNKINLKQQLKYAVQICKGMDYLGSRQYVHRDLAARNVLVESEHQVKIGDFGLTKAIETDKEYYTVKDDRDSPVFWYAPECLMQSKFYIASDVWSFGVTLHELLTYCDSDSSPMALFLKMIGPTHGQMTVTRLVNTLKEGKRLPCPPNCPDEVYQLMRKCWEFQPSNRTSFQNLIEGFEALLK

Consider `CC(C)[C@H](C)n1cc(-c2cc(N3CCOCC3=O)n(C)n2)c2[nH]nc(N)c2c1=O` [Example 49, 3-amino-5-((2S)-3-methylbutan-2-yl)-7-(1-methyl-5-(3-oxomorpholin-4-yl)-1H-pyrazol-3-yl)-1,5-dihydro-4H-pyrazolo[4,3-c]pyridin-4-one], for which the inhibition at 1 µM in assay [1] is 96%; in assay [2] it was 97%; in assay [3], 100%; in assay [4] it was 99%.
The corresponding values for `CC1CCCCC1n1cc(-c2cc(N3CCOCC3)n(C)n2)c2[nH]nc(N)c2c1=O` (racemic) [Example 146, 3-amino-5-(2-methylcyclohexyl)-7-(1-methyl-5-(morpholin-4-yl)-1H-pyrazol-3-yl)-1,5-dihydro-4H-pyrazolo[4,3-c]pyridin-4-one] are 99%, 99%, 100% and 100%.
As to `CC(C)[C@H](C)n1cc(-c2cc(N3CCN4CCCC4C3)n(C)n2)c2[nH]nc(N)c2c1=O` (stereo partly drawn) [Example 62, 3-amino-7-(5-(hexahydropyrrolo[1,2-a]pyrazin-2 (H)-yl)-1-methyl-1H-pyrazol-3-yl)-5-((2S)-3-methylbutan-2-yl)-1,5-dihydro-4H-pyrazolo[4,3-c]pyridin-4-one], the “JAK1 enzyme inhibitory activity (%, 1 μM)” value in assay [1] was determined as 97%. For the same compound, in assay [2], the “JAK2 enzyme inhibitory activity (%, 1 μM)” value is listed as 99%. In addition, the “JAK3 enzyme inhibitory activity (%, 1 μM)” value in assay [3] was determined as 99%. The “TYK2 enzyme inhibitory activity (%, 1 μM)” value in assay [4] is 99%.
In the case of `CC(C)N1CCN(c2cc(-c3cn([C@@H](C)C4CC4)c(=O)c4c(N)n[nH]c34)nn2C)CC1=O` [Example 92, 3-amino-5-((1S)-1-cyclopropylethyl)-7-(5-(4-isopropyl-3-oxopiperazin-1-yl)-1-methyl-1H-pyrazol-3-yl)-1,5-dihydro-4H-pyrazolo[4,3-c]pyridin-4-one], the inhibition at 1 µM in assay [1] is 100%; in assay [2] it was 100%; in assay [3], 99%; in assay [4] it was 99%.
Consider `CN1CCN(c2cc(-c3cn(-c4c(F)cccc4C#N)c(=O)c4c(N)n[nH]c34)nn2C)CC1` [Example 70, 2-(3-amino-7-(1-methyl-5-(4-methylpiperazin-1-yl)-1H-pyrazol-3-yl)-4-oxo-1,4-dihydro-5H-pyrazolo[4,3-c]pyridin-5-yl)-3-fluorobenzonitrile], for which the inhibition at 1 µM in assay [1] turned out to be 97%; in assay [2], 96%; in assay [3] it was 99%; in assay [4], 100%.
Consider `Cn1nc(-c2cn(-c3c(F)cccc3F)c(=O)c3c(N)n[nH]c23)cc1N1CCC(C#N)CC1` [Example 141, 1-(3-(3-amino-5-(2,6-difluorophenyl)-4-oxo-4,5-dihydro-1H-pyrazolo[4,3-c]pyridin-7-yl)-1-methyl-1H-pyrazol-5-yl)piperidine-4-carbonitrile], for which the inhibition at 1 µM in assay [1] is 98%; in assay [2] it was 99%; in assay [3], 100%; in assay [4] it was 100%.
Regarding `Cn1nc(-c2cn(C(C3CC3)C3CC3)c(=O)c3c(N)n[nH]c23)cc1C1CCCCC1` [Example 148, 3-amino-7-(5-cyclohexyl-1-methyl-1H-pyrazol-3-yl)-5-(dicyclopropylmethyl)-1,5-dihydro-4H-pyrazolo[4,3-c]pyridin-4-one], the inhibition at 1 µM in assay [1] was found to be 101%; in assay [2] it was 101%; in assay [3], 104%; in assay [4] it was 110%.
On to `CC(C)[C@H](C)n1cc(-c2cc(C3(O)CCOCC3)n(C)n2)c2[nH]nc(N)c2c1=O` [Example 35, 3-amino-7-(5-(4-hydroxytetrahydro-2H-pyran-4-yl)-1-methyl-1H-pyrazol-3-yl)-5-((2S)-3-methylbutan-2-yl)-1,5-dihydro-4H-pyrazolo[4,3-c]pyridin-4-one], for which the inhibition at 1 µM is 97% in assay [1], 99% in assay [2], 100% in assay [3] and 99% in assay [4].
On to `COC1(c2cc(-c3cn(C(C#N)C(C)C)c(=O)c4c(N)n[nH]c34)nn2C)CCC(F)(F)CC1` (stereo not shown) [Example 139, 2-(3-amino-7-(5-(4,4-difluoro-1-methoxycyclohexyl)-1-methyl-1H-pyrazol-3-yl)-4-oxo-1,4-dihydro-5H-pyrazolo[4,3-c]pyridin-5-yl)-3-methylbutanenitrile], for which the “JAK1 enzyme inhibitory activity (%, 1 μM)” value in assay [1] came out at 32%. Also, the “JAK2 enzyme inhibitory activity (%, 1 μM)” value in assay [2] came to 80%. In addition, the “JAK3 enzyme inhibitory activity (%, 1 μM)” value in assay [3] was 66%. In addition, the “TYK2 enzyme inhibitory activity (%, 1 μM)” value in assay [4] (1 µM) is recorded as 93%.
On to `CO[C@@H]1CCN(c2cc(-c3cn([C@@H](C)C(C)C)c(=O)c4c(N)n[nH]c34)nn2C)C1` [Example 24, 3-amino-7-(5-((3R)-3-methoxypyrrolidin-1-yl)-1-methyl-1H-pyrazol-3-yl)-5-((2S)-3-methylbutan-2-yl)-1,5-dihydro-4H-pyrazolo[4,3-c]pyridin-4-one], for which the inhibition at 1 µM in assay [1] is 96%; in assay [2], 98%; in assay [3], 99%; in assay [4], 100%.
On to `Cn1nc(-c2cn(C(C3CC3)C3CC3)c(=O)c3c(N)n[nH]c23)cc1N1CC[C@H](O)C1` [Example 166, 3-amino-5-(dicyclopropylmethyl)-7-(5-((3S)-3-hydroxypyrrolidin-1-yl)-1-methyl-1H-pyrazol-3-yl)-1,5-dihydro-4H-pyrazolo[4,3-c]pyridin-4-one], for which the inhibition at 1 µM was determined as 100% in assay [1], 99% in assay [2], 100% in assay [3] and 101% in assay [4].
Turning to `CC(C)[C@H](C)n1cc(-c2cc(N3CCCC3=O)n(C)n2)c2[nH]nc(N)c2c1=O` [Example 55, 3-amino-5-((2S)-3-methylbutan-2-yl)-7-(1-methyl-5-(2-oxopyrrolidin-1-yl)-1H-pyrazol-3-yl)-1,5-dihydro-4H-pyrazolo[4,3-c]pyridin-4-one], the inhibition at 1 µM in assay [1] was found to be 98%; in assay [2] it was 98%; in assay [3] it was 99%; in assay [4], 99%.
For `Cn1nc(-c2cn(C(C3CC3)C3CC3)c(=O)c3c(N)n[nH]c23)cc1N1CCC[C@@H]1CN1CCCC1` [Example 158, 3-amino-5-(dicyclopropylmethyl)-7-(1-methyl-5-((2R)-2-(pyrrolidin-1-ylmethyl)pyrrolidin-1-yl)-1H-pyrazol-3-yl)-1,5-dihydro-4H-pyrazolo[4,3-c]pyridin-4-one], the inhibition at 1 µM came to 92% in assay [1], 99% in assay [2], 100% in assay [3] and 101% in assay [4].
